The values that follow come from US20200239530A1, “COMPOUNDS AND METHODS OF MODULATING PROTEIN DEGRADATION” (Vividion Therapeutics, Inc., priority 2017, published 2020).

Common to all, as to assay: Competitive cysteine profiling, probe competition (Table 2B)
What all share (format): binding

The target of one assay is T1, Q96C12 (Homo sapiens, UniProt Q96C12).
T1 construct: Cells were resuspended in cold PBS on ice and sonicated with a probe sonicator to achieve lysis; endogenous in cells
T1 sequence (Q96C12 1-935): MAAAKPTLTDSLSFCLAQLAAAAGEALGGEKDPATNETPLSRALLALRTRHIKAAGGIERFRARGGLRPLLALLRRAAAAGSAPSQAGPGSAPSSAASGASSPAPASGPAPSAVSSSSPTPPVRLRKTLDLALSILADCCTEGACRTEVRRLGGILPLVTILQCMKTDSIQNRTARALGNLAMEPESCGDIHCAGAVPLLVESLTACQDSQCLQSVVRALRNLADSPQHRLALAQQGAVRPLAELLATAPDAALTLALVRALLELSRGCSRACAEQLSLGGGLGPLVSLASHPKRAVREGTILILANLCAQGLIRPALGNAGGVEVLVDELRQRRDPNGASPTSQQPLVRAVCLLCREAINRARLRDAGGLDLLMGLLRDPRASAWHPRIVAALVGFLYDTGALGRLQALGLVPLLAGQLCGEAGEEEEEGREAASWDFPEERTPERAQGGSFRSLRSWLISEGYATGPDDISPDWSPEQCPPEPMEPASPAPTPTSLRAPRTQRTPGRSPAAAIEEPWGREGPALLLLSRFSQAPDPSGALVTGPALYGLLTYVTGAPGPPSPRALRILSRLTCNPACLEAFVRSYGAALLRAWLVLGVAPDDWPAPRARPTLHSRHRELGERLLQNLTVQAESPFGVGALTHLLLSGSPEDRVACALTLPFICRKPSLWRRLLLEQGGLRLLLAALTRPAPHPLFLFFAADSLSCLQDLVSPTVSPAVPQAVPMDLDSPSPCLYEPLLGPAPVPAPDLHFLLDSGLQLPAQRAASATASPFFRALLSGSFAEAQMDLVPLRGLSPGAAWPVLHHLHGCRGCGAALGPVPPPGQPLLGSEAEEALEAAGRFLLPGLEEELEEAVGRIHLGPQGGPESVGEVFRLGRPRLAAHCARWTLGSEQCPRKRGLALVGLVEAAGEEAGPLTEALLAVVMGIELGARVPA
The text has this:
(§1) The following 96-well sample prep protocol was used for sample preparation.

Another assay deals with T2, Q86VP6 (Homo sapiens, UniProt Q86VP6).
T2 construct: 200 μL of lysate containing 5 mg/ml proteome was treated with 2 μL of 100× compound stock; endogenous in cells
T2 sequence (Q86VP6 1-1230): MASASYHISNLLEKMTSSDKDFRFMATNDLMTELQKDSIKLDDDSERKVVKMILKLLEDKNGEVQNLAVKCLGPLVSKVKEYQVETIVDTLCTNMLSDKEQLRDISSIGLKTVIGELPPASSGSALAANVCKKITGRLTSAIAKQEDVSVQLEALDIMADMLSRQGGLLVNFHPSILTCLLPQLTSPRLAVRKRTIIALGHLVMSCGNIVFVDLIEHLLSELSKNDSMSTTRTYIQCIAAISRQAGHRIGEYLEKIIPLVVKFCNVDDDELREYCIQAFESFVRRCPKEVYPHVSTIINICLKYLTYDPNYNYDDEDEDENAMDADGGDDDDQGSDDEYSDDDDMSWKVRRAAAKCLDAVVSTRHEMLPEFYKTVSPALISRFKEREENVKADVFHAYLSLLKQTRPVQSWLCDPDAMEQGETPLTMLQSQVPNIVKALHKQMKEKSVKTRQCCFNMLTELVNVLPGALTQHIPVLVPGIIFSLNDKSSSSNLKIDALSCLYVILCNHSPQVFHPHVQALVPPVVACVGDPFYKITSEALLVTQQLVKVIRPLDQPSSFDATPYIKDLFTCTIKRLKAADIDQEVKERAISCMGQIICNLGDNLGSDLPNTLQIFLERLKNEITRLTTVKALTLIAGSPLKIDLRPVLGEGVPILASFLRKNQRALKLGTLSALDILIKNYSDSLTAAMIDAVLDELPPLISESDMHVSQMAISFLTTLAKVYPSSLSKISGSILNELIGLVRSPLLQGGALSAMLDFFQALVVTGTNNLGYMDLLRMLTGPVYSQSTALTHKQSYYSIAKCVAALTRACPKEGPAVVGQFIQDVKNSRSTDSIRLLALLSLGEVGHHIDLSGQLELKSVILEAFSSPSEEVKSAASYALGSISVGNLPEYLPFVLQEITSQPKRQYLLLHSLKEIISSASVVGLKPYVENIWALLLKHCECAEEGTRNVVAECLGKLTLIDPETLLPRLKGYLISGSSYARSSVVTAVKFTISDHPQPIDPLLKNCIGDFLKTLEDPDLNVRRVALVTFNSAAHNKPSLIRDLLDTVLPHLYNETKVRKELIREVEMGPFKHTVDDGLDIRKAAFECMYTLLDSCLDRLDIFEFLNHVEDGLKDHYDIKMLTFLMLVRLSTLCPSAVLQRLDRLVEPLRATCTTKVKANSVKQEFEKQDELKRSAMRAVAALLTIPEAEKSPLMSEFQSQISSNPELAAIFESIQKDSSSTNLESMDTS
Source text: as §1

The next assay deals with T3, Q92624 (Homo sapiens, UniProt Q92624).
T3 construct: Cells were resuspended in cold PBS on ice and sonicated with a probe sonicator to achieve lysis; endogenous in cells
T3 sequence (Q92624 1-585): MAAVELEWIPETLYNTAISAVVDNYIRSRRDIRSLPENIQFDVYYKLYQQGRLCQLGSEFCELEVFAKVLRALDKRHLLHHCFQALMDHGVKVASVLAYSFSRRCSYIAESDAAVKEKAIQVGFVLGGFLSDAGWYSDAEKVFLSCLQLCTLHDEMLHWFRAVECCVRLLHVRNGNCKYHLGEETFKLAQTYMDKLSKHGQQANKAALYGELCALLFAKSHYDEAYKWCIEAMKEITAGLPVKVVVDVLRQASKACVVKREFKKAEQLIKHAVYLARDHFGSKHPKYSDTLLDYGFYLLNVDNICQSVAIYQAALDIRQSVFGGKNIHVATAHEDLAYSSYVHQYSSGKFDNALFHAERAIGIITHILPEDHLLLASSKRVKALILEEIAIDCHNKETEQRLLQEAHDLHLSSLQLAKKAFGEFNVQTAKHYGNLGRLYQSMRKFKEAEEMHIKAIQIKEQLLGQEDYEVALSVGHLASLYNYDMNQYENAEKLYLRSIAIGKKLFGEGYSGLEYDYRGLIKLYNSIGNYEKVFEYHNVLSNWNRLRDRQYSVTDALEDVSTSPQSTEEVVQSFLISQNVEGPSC
Source text: as §1

[1] abbreviates: read-out: KB02_100 uM_percent_inhibition.
[2] abbreviates: read-out: KB05_100 uM_percent_inhibition.

Where two headings read alike, the source gives them in different places.

On to `COc1ccc2c(c1)CCCN2C(=O)CCl` [KB02], for which the inhibition at 100 µM on Q96C12 (setting [1]) worked out at 62%; at Q86VP6 (setting [1]), 47%. Also, the “KB02_100 uM_percent_inhibition” value on Q86VP6 (100 uM) worked out at 27%. Also, the inhibition at 500 µM at Q92624 (500 uM, read-out: KB02_500 uM_percent_inhibition) came to 100%.
Turning to `C=CC(=O)N(c1ccccc1)c1ccc(Br)cc1` [KB05], the inhibition at 100 µM stood at 23% on Q96C12 (setting [2]); 4% at Q86VP6 (setting [2]); 34% at Q92624 (100 uM, read-out: KB05_100 uM_percent_inhibition). In addition, the “KB05_100 uM_percent_inhibition” value on Q86VP6 (100 uM) is on record as 7%.
For the compound `O=C(CCl)Nc1cc(C(F)(F)F)cc(C(F)(F)F)c1` [KBO3], the “KB03_100 uM_percent_inhibition” value on Q96C12 (100 uM) is listed as 40%; on Q86VP6 (100 uM), 46%; on Q92624 (100 uM), 56%.
